Legend:
C3a Receptor = target: T1, C3a Receptor (Homo sapiens, UniProt Q16581); test: Electrophysiological response (Ca2+ mediated chloride currents, two electrode voltage clamp) of Xenopus oocytes injected with C3a Receptor cRNA; type: cell-based; parameters: cDNA encoding a complete orphan GPCR of 482 amino acids; expressed in transfected cells; host or cells: Xenopus laevis oocytes microinjected with cRNA, with or without U937 total RNA; conditions: for electrophysiological response of oocytes expressing C3a Receptor: oocytes co-injected with C3a Receptor cRNA (10 ng) and U937 RNA (25 ng), ligands 10 nM
T1 sequence (Q16581 1-482 F151C): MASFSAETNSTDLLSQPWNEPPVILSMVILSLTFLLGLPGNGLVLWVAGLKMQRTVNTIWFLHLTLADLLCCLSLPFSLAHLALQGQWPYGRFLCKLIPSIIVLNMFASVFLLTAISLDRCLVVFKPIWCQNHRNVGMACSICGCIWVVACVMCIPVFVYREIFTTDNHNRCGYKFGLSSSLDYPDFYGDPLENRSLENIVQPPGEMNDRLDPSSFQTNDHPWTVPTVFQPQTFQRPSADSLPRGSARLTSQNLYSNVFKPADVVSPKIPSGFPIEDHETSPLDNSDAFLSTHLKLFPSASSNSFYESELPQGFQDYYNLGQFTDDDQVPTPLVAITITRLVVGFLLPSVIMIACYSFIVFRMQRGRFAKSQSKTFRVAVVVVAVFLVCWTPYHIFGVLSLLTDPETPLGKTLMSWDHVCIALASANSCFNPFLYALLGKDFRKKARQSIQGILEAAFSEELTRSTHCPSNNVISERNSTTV
Experimental: (A) Electrophysiological response of Xenopus oocytes injected with cRNA for C3a Receptor (10 ng), total U937 RNA (25 ng), or a mixture of C3a Receptor (10 ng) and U937 RNA (25 ng) to 10 nM rC5a, 10 nM C3a analogue peptide, 10 nM platelet activating factor (PAF), 10 nM fMetLeuPhe. Inset, represents typical response of oocytes co-injected with C3a Receptor cRNA+U937 RNA to 10 nM C3a. (B) Electrophysiological response of oocytes injected with C5a-R cRNA (10 ng), U937 RNA (25 ng) or a mixture of C5a-R and U937 RNA, to 10 nM rC5a or 10 nM C3a analogue peptide. […] Calcium mobilization by Fura 2 loaded cells expressing C5a receptor (FIGS. 4A & 4C) or C3a Receptor (FIGS. 4B & 4D) in response to rC5a (10 nM, FIG. 4A or 100 nM, FIG. 4B) or C3a analogue peptide (1 uM, FIGS. 4C & 4D).
Capped cRNA transcripts were generated from linearized C3a Receptor and C5a-R plasmid DNA as previously described (Kumar, C. S., et al (1989) J. Biol. Chem. 264, 17939-17946) and suspended in sterile water at a concentration of 0.2 μg/μl. Ovarian lobes were surgically removed from adult female Xenopus laevis frogs and defolliculated Stage V oocytes were harvested by manual dissection (Smith, L. D., et al (1991) Methods in Cell Biology, 36, 45-54. Edited by B. K. Kay and H. B. Peng, Academic Press Inc., New York.). Oocytes were microinjected with C3a Receptor or C5a-R cRNA transcripts (10 ng/oocyte) with or without U937 total RNA (25 ng/oocyte) in a 50 nl volume using a Drummond microinjection apparatus and maintained in modified Barth's saline (Power, C. A., et al (1995) J. Biol. Chem., 270,19495-19500 ) at 18° C. Electrophysiological recordings from an average of 10 oocytes were made 48 h later at room temperature using the two electrode voltage clamp (Warner Instruments) technique. Membrane potentials were routinely clamped at -60 mV. Results represent average response determined in three separate experiments.
The chemotactic receptors for C5a and the fMLP-R have previously been functionally expressed in Xenopus laevis oocytes (Kroll, B., et al (1991) FEBS Lett. 291, 208-210; Murphy, P. M. & McDermott, D. (1991) J Biol. Chem. 266, 12560-12567; Murphy, P. M., Gallin, E. K., and Tiffany, H. L. (1990) J Immunol. 145, 2227-2234; Schultz, P., et al (1992) Cellular Signalling 4, 153-161) and, unlike all other GPCRs tested in this system, injection of cRNA for the cloned chemotactic receptors alone is insufficient to stimulate signal transduction in response to ligand binding (Kroll, B., et al (1991) FEBS Lett. 291, 208-210; Murphy, P. M. & McDermott, D. (1991) J Biol. Chem. 266, 12560-12567). Functional expression of both of these chemotactic receptors, as monitored by induction of Ca^2+ mediated chloride currents, requires the co-injection of a complimentary human factor which can be supplied by total RNA from myeloid or liver cells (Kroll, B., et al (1991) FEBS Lett. 291, 208-210; Murphy, P. M. & McDermott, D. (1991) J Biol. Chem. 266, 12560-12567). The co-factor is required for receptor-mediated signal transduction but not for expression of the C5a-R or fMLF-R on the surface of the oocytes (Murphy, P. M., et al (1990) J Immunol. 145, 2227-2234). […] Xenopus oocytes were used to functionally characterize C3a Receptor. […] Like the C5a-R and the fMLF-R, the response was dependent on the co-injection of a cofactor present in total HL-60 or U937 RNA. […] (FIG. 3B). Both the C5a-R as well as C3a Receptor elicited in oocytes a promiscuous response to the two anaphylatoxins.

C3a-R = conditions: cited from earlier work
guinea pig ileal tissue = conditions: C3a and C4a; cited from earlier work

CSCC[C@H](NC=O)C(=O)N[C@@H](CC(C)C)C(=O)N[C@@H](Cc1ccccc1)C(=O)O [fMLF, fMetLeuPhe]
electrophysiological response of oocytes expressing C3a Receptor (C3a Receptor): not

CCCCCCCCCCCCCCCCOCC(COP(=O)([O-])OCC[N+](C)(C)C)OC(C)=O (centres unmarked) [platelet activating factor]
electrophysiological response of oocytes expressing C3a Receptor (C3a Receptor): not

pertussis toxin
sensitivity of functional activity of the C3a-R to pertussis toxin (C3a-R): sensitive | effect on response to the C3a peptide of oocytes co-injected with C3a Receptor and U937 RNA (C3a Receptor; response to C3a peptide, data not shown): abolished

B1: C4a: 74-77 amino acid anaphylatoxins C3a, C4a and C5a (protein, UniProt P0C0L4 680-756, looked up)
C4a anaphylatoxin: NVNFQKAINEKLGQYASPTAKRCCQDGVTRLPMMRSCEQRAARVQQPDCREPFLSCCQFAESLRKKSRDKGQAGLQR
modifications: C4a anaphylatoxin
notes: 74-77 amino acid anaphylatoxins C3a, C4a and C5a
cross desensitization of guinea pig ileal tissue (guinea pig ileal tissue): cross desensitize

Source: US5942405A, “Therapeutic and screening methods using C3a receptor and C3a” (priority 1997, dated 1999)
